Source: PubChem BioAssay AID256 (DTP/NCI, 2004)
Several values for one entry are separate records, joined by “and”; a condition that tells them apart may be missing. Equal values may be shown once. Toxic doses and inconclusive results are not listed. How the source made its calls: active means survival T/C of 150% or more; inactive means T/C below 125% in these data.

Tested on: CD2F1 mice, L1210 leukemia ip, survival T/C
Test: NCI In Vivo Anticancer Drug Screen. Data for tumor model L1210 Leukemia (intraperitoneal) in CD2F1 (CDF1) mice
Settings: higher = longer survival
Summary of the method: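 Antitumor effect is scored in animals hosting a serially transplanted tumor. Values compare compound-dosed animals against vehicle-only controls as a simple quotient.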

[1] = endpoint: mean survival time, dose: 100.0 mg/kg/injection, schedule: Q01DX009 (ip), vehicle: saline with Tween-80
[2] = endpoint: mean survival time, dose: 100.0 mg/kg/injection, schedule: Q04DX003 (ip), vehicle: saline with Tween-80
[3] = endpoint: mean survival time, dose: 200.0 mg/kg/injection, schedule: Q01DX009 (ip), vehicle: saline with Tween-80
[4] = endpoint: mean survival time, dose: 200.0 mg/kg/injection, schedule: Q04DX003 (ip), vehicle: saline with Tween-80
[5] = endpoint: mean survival time, dose: 400.0 mg/kg/injection, schedule: Q04DX003 (ip), vehicle: saline with Tween-80
[6] = endpoint: mean survival time, dose: 400.0 mg/kg/injection, schedule: Q01DX009 (ip), vehicle: saline with Tween-80
[7] = endpoint: mean survival time, dose: 100.0 mg/kg/injection, schedule: Q04DX002 (ip), vehicle: saline with Tween-80
[8] = endpoint: mean survival time, dose: 200.0 mg/kg/injection, schedule: Q04DX002 (ip), vehicle: saline with Tween-80
[9] = endpoint: mean survival time, dose: 400.0 mg/kg/injection, schedule: Q04DX002 (ip), vehicle: saline with Tween-80

Measured: T/C

c1ccc(C2CC([P+](c3ccccc3)(c3ccccc3)c3ccccc3)=NN2)cc1 (stereo not given)
inactive: endpoint: mean survival time, dose: 2.7 mg/kg/injection, schedule: Q01DX009 (ip), vehicle: Klucel (hydroxypropylcellulose) (HPC) 110 % of control | endpoint: mean survival time, dose: 4.1 mg/kg/injection, schedule: Q01DX009 (ip), vehicle: Klucel (hydroxypropylcellulose) (HPC) 112 % of control | endpoint: mean survival time, dose: 5.5 mg/kg/injection, schedule: Q04DX003 (ip), vehicle: Klucel (hydroxypropylcellulose) (HPC) 106 % of control | endpoint: mean survival time, dose: 6.25 mg/kg/injection, schedule: Q01DX009 (ip), vehicle: Klucel (hydroxypropylcellulose) (HPC) 108 % of control | endpoint: mean survival time, dose: 8.2 mg/kg/injection, schedule: Q04DX003 (ip), vehicle: Klucel (hydroxypropylcellulose) (HPC) 106 % of control | endpoint: mean survival time, dose: 9.3 mg/kg/injection, schedule: Q01DX009 (ip), vehicle: Klucel (hydroxypropylcellulose) (HPC) 110 % of control | endpoint: mean survival time, dose: 11.0 mg/kg/injection, schedule: Q04DX002 (ip), vehicle: Klucel (hydroxypropylcellulose) (HPC) 102 % of control | endpoint: mean survival time, dose: 12.5 mg/kg/injection, schedule: Q04DX003 (ip), vehicle: Klucel (hydroxypropylcellulose) (HPC) 104 % of control | endpoint: mean survival time, dose: 14.0 mg/kg/injection, schedule: Q01DX009 (ip), vehicle: Klucel (hydroxypropylcellulose) (HPC) 102 % of control | endpoint: mean survival time, dose: 16.0 mg/kg/injection, schedule: Q04DX002 (ip), vehicle: Klucel (hydroxypropylcellulose) (HPC) 95 % of control | endpoint: mean survival time, dose: 18.0 mg/kg/injection, schedule: Q04DX003 (ip), vehicle: Klucel (hydroxypropylcellulose) (HPC) 108 % of control | endpoint: mean survival time, dose: 22.0 mg/kg/injection, schedule: Q01DX001 (ip), vehicle: Klucel (hydroxypropylcellulose) (HPC) 104 % of control | endpoint: mean survival time, dose: 25.0 mg/kg/injection, schedule: Q04DX002 (ip), vehicle: Klucel (hydroxypropylcellulose) (HPC) 102 % of control | endpoint: mean survival time, dose: 28.0 mg/kg/injection, schedule: Q04DX003 (ip), vehicle: Klucel (hydroxypropylcellulose) (HPC) 108 % of control | endpoint: mean survival time, dose: 35.0 mg/kg/injection, schedule: Q01DX001 (ip), vehicle: Klucel (hydroxypropylcellulose) (HPC) 110 % of control | endpoint: mean survival time, dose: 35.0 mg/kg/injection, schedule: Q04DX002 (ip), vehicle: Klucel (hydroxypropylcellulose) (HPC) 96 % of control | endpoint: mean survival time, dose: 55.0 mg/kg/injection, schedule: Q04DX002 (ip), vehicle: Klucel (hydroxypropylcellulose) (HPC) 104 % of control

O=C(NS(=O)(=O)c1ccc(Cl)cc1)OCCCl
inactive: [1] 96 % of control | [2] 97 % of control | [3] 96 % of control | [4] 97 % of control | [5] 102 % of control

CCOC(=O)N1CCc2cc(OC)c(OC)cc2C1=C(c1ccccc1)c1ccccc1
inactive: [1] 91 % of control | [2] 86 % of control | [3] 95 % of control | [6] 88 % of control | [5] 86 % of control

COc1ccc(CC(=O)O)cc1OC (tested in a mixture with another compound)
inactive: [1] 96 % of control | endpoint: mean survival time, dose: 100.0 mg/kg/injection, schedule: Q04DX003 (ip), vehicle: saline sonified 101 % of control | [3] 98 % of control | endpoint: mean survival time, dose: 200.0 mg/kg/injection, schedule: Q04DX003 (ip), vehicle: saline sonified 101 % of control | [6] 102 % of control | endpoint: mean survival time, dose: 400.0 mg/kg/injection, schedule: Q04DX003 (ip), vehicle: saline sonified 96 % of control

CCCCCCN=C(N)NC(=O)OC
inactive: endpoint: mean survival time, dose: 6.25 mg/kg/injection, schedule: Q01DX009 (ip), vehicle: saline with Tween-80 87 % of control | endpoint: mean survival time, dose: 12.5 mg/kg/injection, schedule: Q01DX009 (ip), vehicle: saline with Tween-80 100 % of control | endpoint: mean survival time, dose: 25.0 mg/kg/injection, schedule: Q01DX009 (ip), vehicle: saline with Tween-80 100 % of control

O=c1ccn(C2CC(O)C(CO)O2)cc1 (stereo not given)
inactive: endpoint: mean survival time, dose: 100.0 mg/kg/injection, schedule: Q01DX005 (ip), vehicle: saline 101 % of control | endpoint: mean survival time, dose: 200.0 mg/kg/injection, schedule: Q01DX005 (ip), vehicle: saline 100 % of control

CCCCCCCCCCCCCCCCCCCCCC(=O)OC
inactive: [1] 102 % of control | [2] 89 % of control | [3] 103 % of control | [4] 90 % of control | [6] 100 % of control | [5] 87 % of control

CCOC(=O)CC(=O)C(F)(F)F.CCOC(=O)CC(=O)C(F)(F)F.[Ni]
inactive: endpoint: mean survival time, dose: 150.0 mg/kg/injection, schedule: Q01DX001 (ip), vehicle: saline 115 % of control

CC(C)COC(=O)CN(CC(=O)OCC(C)C)c1ccccc1
inactive: [1] 96 % of control | [2] 110 % of control | [3] 98 % of control | [4] 97 % of control | [6] 103 % of control | [5] 97 % of control

O=C(Cc1ccccc1)NC(CSSCC(NC(=O)Cc1ccccc1)C(=O)O)C(=O)O (stereo not given)
inactive: [1] 101 % of control | [3] 98 % of control | [6] 93 % of control

O=C(Cc1cccc2ccccc12)N/N=C/c1ccc2c(c1)CCC2
inactive: [2] 89 % of control | [4] 95 % of control | [5] 95 % of control

COc1ccccc1NC(=O)Oc1cccc(OC(=O)c2ccccc2)c1
inactive: [7] 96 % of control | [8] 103 % of control | [9] 88 % of control

CCOc1cc(C(F)(F)F)nc2c3c(cc(OC)c12)CCCN3CC
inactive: [1] 98 % of control | [6] 90 % of control

Cc1c(O)/c(=C\O)c2nc3c(=O)ccc(C(=O)NCCN(C)C)c3[nH]c2c1=O
inactive: endpoint: median survival time, dose: 12.5 mg/kg/injection, schedule: Q01DX005 (ip), vehicle: water 103 % of control and 110 % of control | endpoint: median survival time, dose: 18.0 mg/kg/injection, schedule: Q01DX005 (ip), vehicle: water 115 % of control | endpoint: median survival time, dose: 25.0 mg/kg/injection, schedule: Q01DX005 (ip), vehicle: water 114 % of control and 105 % of control

Nc1nc(=Nc2ccccc2)n(C2OCC(O)C(O)C2O)c2ccccc12 (stereo not given)
inactive: endpoint: mean survival time, dose: 12.5 mg/kg/injection, schedule: Q01DX005 (ip), vehicle: distilled water + Tween-80 94 % of control | endpoint: mean survival time, dose: 25.0 mg/kg/injection, schedule: Q01DX005 (ip), vehicle: distilled water + Tween-80 94 % of control | endpoint: mean survival time, dose: 50.0 mg/kg/injection, schedule: Q01DX005 (ip), vehicle: distilled water + Tween-80 93 % of control | endpoint: mean survival time, dose: 100.0 mg/kg/injection, schedule: Q01DX005 (ip), vehicle: distilled water + Tween-80 90 % of control | endpoint: mean survival time, dose: 200.0 mg/kg/injection, schedule: Q01DX005 (ip), vehicle: distilled water + Tween-80 86 % of control

[CH3][Sn]1([CH3])[O]C2C(CO)OC(n3ccc4c(N)ncnc43)C2[O]1 (stereo not given)
inactive: endpoint: mean survival time, dose: 0.78 mg/kg/injection, schedule: Q01DX005 (ip), vehicle: other 111 % of control | endpoint: mean survival time, dose: 1.56 mg/kg/injection, schedule: Q01DX005 (ip), vehicle: other 107 % of control | endpoint: mean survival time, dose: 3.13 mg/kg/injection, schedule: Q01DX005 (ip), vehicle: other 115 % of control

CC1CCCCCCCCCCC12OCCO2 (stereo not given)
inactive: [7] 87 % of control | [8] 98 % of control | [9] 106 % of control

O=S(=O)(O)c1ccc2c(N=Nc3ccccc3[As](=O)(O)O)c(O)c(S(=O)(=O)O)cc2c1
inactive: [1] 96 % of control | [2] 104 % of control | [3] 100 % of control | [4] 94 % of control | [5] 98 % of control

CCC(C)(OC(C)=O)C(=O)OC1C(=O)OC2CC3C(C)=CC(O)C(O)C3(C)C3C4(O)OCC23C1C(C)C4O (stereo not given)
inactive: endpoint: mean survival time, dose: 0.25 mg/kg/injection, schedule: Q01DX009 (ip), vehicle: saline + alcohol 98 % of control | endpoint: mean survival time, dose: 0.5 mg/kg/injection, schedule: Q01DX009 (ip), vehicle: saline + alcohol 102 % of control | endpoint: mean survival time, dose: 1.0 mg/kg/injection, schedule: Q01DX009 (ip), vehicle: saline + alcohol 106 % of control | endpoint: mean survival time, dose: 2.0 mg/kg/injection, schedule: Q01DX009 (ip), vehicle: saline + alcohol 98 % of control | endpoint: mean survival time, dose: 4.0 mg/kg/injection, schedule: Q01DX009 (ip), vehicle: saline + alcohol 96 % of control

CC(C)(C)OOCC1CO1 (stereo not given)
inactive: [1] 92 % of control | [2] 98 % of control | [3] 94 % of control | [4] 105 % of control | [6] 98 % of control | [5] 96 % of control

CC(C)(C)OC(=O)C[Si](C)(C)C
inactive: endpoint: mean survival time, dose: 12.5 mg/kg/injection, schedule: Q01DX005 (ip), vehicle: Klucel (hydroxypropylcellulose) (HPC) 90 % of control | endpoint: mean survival time, dose: 25.0 mg/kg/injection, schedule: Q01DX005 (ip), vehicle: Klucel (hydroxypropylcellulose) (HPC) 91 % of control | endpoint: mean survival time, dose: 50.0 mg/kg/injection, schedule: Q01DX005 (ip), vehicle: Klucel (hydroxypropylcellulose) (HPC) 93 % of control | endpoint: mean survival time, dose: 100.0 mg/kg/injection, schedule: Q01DX005 (ip), vehicle: Klucel (hydroxypropylcellulose) (HPC) 90 % of control | endpoint: mean survival time, dose: 200.0 mg/kg/injection, schedule: Q01DX005 (ip), vehicle: Klucel (hydroxypropylcellulose) (HPC) 88 % of control | endpoint: mean survival time, dose: 400.0 mg/kg/injection, schedule: Q01DX005 (ip), vehicle: Klucel (hydroxypropylcellulose) (HPC) 90 % of control

CN(C)CCCN=C(N)CSP(=O)(O)O
inactive: endpoint: mean survival time, dose: 100.0 mg/kg/injection, schedule: Q04DX002 (ip), vehicle: saline 102 % of control | endpoint: mean survival time, dose: 200.0 mg/kg/injection, schedule: Q04DX002 (ip), vehicle: saline 109 % of control
